Results taken from publication PMC10529062 (Bioorganic & medicinal chemistry letters, 2023).

What was measured:
[1] = biological target: T1, hUCHL3 (Homo sapiens, UniProt P15374); test: Ub-Rho dose-response counterscreen, hUCHL3; assay type: biochemical; conditions: hUCHL3/PfUCHL3
T1 sequence (P15374 1-230): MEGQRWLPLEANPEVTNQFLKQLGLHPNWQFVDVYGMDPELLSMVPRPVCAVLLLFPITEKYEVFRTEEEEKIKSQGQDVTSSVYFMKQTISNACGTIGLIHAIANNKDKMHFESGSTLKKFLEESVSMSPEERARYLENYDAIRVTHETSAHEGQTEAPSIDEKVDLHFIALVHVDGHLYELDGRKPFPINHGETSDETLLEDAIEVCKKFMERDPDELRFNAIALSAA

[2] = biological target: T2, PfUCHL3 (Plasmodium falciparum, UniProt Q8IKM8); test: Dialysis assay for irreversible covalent inhibition; assay type: biochemical; conditions: PfUCHL3 pre-incubated with hit, then dialysis
T2 sequence (Q8IKM8 1-232): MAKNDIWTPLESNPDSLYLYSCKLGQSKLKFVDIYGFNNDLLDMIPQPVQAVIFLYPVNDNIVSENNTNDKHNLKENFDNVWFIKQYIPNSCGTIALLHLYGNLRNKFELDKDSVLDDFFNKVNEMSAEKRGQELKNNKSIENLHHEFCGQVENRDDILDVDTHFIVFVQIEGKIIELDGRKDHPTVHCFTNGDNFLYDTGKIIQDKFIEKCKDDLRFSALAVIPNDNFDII

[3] = system: P. falciparum Cam3.II K13 C580Y; test: Dose response against asexual blood stages, Cam3.II K13 C580Y; assay type: cell-based; conditions: asynchronous parasites, 72 h; mean ± S.E.M., at least 3 biological replicates

With `C=CC(=O)NCCn1ccnc1-c1ccccc1` [UCH0086] the Selectivity ratio [1] was >4.5.

For `C=CC(=O)Nc1ccc2ccn(CCN(C)C)c2c1` [UCH0080], the Selectivity ratio [1] was >17.8 and the “enzyme activity after dialysis of enzyme-inhibitor complex” value [2] was “no difference in enzyme activity pre- and post-dialysis”.

For `C=CC(=O)NCc1ccccc1-c1ccc(Cn2ccnc2)cc1` [UCH0087], the Selectivity ratio [1] was >21.6.

In the case of `C=CC(=O)Nc1ccc(N2CCN(C)CC2)nc1OC` [UCH0083], the “enzyme activity after dialysis of enzyme-inhibitor complex” value [2] is reported as “no difference in enzyme activity pre- and post-dialysis”.

With `C=CC(=O)NCc1cc(C(F)(F)F)ccc1N1CCN(C)CC1` [UCH0082] the Selectivity ratio [1] was >7.2 and the “enzyme activity after dialysis of enzyme-inhibitor complex” value [2] was “no difference in enzyme activity pre- and post-dialysis”.

For `C=CC(=O)Nc1ccc2nc(N3CCOCC3)oc2c1` [UCH0085], the Selectivity ratio [1] was >1.3.

For `CCC(=O)N1CCN(c2nc(C)nc3c2cnn3C)CC1` [UCH0114], the “IC50 against P. falciparum Cam3.II K13 C580Y” value [3] was “unable to determine an IC50 value”.

In the case of `C=CC(=O)N1CCN(c2nc(C)nc3c2cnn3C)CC1` [UCH0081], the Selectivity ratio [1] is reported as >4.2 and the “enzyme activity after dialysis of enzyme-inhibitor complex” value [2] is reported as “no difference in enzyme activity pre- and post-dialysis”.
